Like-named read-outs stand apart in the source and are kept apart here. Ends that are not written are not given here. Peptide text beside a SMILES is read from it.
Experiments:
[1] = In vitro gastro-intestinal digestion of Biozate (artificial human gastro intestinal tract)
Description: The stability of peptides in the human gastro-intestinal tract was studied by subjecting Biozate™ to typical conditions in the stomach and small intestine. Gastric conditions were mimicked by dissolving 5.0 g Biozate™, 2.1 g NaCl, 0.1 g NaH2PO4, 0.45 g lipase and 2.9 g pepsin in 900 mL of Millipore Q water. The fluid was adjusted to pH 3.5 with HCl, stirred with a peddle (50 rpm) and kept at 37° C. for 60 min. Subsequently, intestinal conditions were mimicked by adding 9.0 g pancreatin to the simulated gastric fluid and adjusting the pH to 6.8 with NaHCO3. The simulated intestinal fluid was incubated at 37° C. and continuous stirring (50 rpm) for 120 min. Samples were collected at different time points during the in vitro gastro-intestinal digestion. After collection, samples were directly heated at 95° C. for 30 min and subsequently stored at −20° C.
At certain times samples were taken from the GIT model system.

[2] = tested on: spontaneously hypertensive rats; settings: Abubakar et al., 1998; cited from earlier work
ACE = ACE (Homo sapiens, UniProt P12821); assay: ACE activity measurement with fluorogenic substrate Abz-FRK(Dnp)P-OH
ACE, sequence (P12821 30-1306, species assumed): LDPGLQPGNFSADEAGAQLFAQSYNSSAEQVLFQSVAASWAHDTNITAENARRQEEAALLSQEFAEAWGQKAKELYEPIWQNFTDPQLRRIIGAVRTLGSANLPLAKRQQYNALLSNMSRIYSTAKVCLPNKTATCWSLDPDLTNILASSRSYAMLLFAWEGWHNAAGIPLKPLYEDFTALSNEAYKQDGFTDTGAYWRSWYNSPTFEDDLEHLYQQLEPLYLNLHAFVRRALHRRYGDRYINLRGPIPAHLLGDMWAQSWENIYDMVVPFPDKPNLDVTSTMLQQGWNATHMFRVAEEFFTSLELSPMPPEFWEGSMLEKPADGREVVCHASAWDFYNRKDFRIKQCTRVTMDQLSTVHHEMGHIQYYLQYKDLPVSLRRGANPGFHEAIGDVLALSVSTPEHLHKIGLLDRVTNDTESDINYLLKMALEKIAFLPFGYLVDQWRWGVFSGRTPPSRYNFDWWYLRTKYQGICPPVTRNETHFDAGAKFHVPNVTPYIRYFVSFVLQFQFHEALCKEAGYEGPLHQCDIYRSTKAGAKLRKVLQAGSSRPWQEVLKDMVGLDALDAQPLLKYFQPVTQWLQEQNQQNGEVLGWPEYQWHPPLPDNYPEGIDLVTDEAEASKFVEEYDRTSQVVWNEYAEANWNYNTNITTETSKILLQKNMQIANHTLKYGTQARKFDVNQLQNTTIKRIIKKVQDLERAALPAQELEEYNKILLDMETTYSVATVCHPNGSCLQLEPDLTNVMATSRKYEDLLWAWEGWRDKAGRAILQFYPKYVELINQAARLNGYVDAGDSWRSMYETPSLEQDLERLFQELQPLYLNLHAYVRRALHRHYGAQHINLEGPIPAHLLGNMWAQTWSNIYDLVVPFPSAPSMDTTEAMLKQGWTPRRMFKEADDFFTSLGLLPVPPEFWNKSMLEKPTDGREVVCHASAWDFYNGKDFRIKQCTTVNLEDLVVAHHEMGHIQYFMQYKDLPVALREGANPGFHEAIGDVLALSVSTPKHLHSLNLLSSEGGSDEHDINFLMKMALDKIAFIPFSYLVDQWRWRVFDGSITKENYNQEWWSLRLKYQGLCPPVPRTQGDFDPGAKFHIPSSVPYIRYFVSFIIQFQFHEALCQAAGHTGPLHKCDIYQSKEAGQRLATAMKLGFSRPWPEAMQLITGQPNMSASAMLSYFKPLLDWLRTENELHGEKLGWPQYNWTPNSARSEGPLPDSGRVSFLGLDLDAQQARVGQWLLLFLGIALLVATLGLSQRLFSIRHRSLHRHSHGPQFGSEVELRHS
Description: ACE activity with the fluorogenic substrate Abz-FRK(Dnp)P—OH was monitored in 0.1 M Tris buffer pH 7.0, containing 100 mM NaCl. […] The ACE activity was continuously followed in a Fluostar (BMG) fluorometer with 2 dispensers by measuring the fluorescence at λex: 320 nm and λem: 420 nm.

| Concentration, Original solution ([1]; Biozate original solution before digestion) [ng/mL] | Concentration, t = 0 min ([1]; t = 0 min, simulated gastric fluid pH 3.5, 37° C.) [ng/mL] | Concentration, t = 60 min ([1]; t = 60 min, end of gastric phase) [ng/mL] | Concentration, t = 65 min ([1]; t = 65 min, simulated intestinal fluid (pancreatin, pH 6.8)) [ng/mL] | Concentration, t = 75 min ([1]; t = 75 min, simulated intestinal fluid) [ng/mL] | Concentration, t = 90 min ([1]; t = 90 min, simulated intestinal fluid) [ng/mL] | Concentration, t = 120 min ([1]; t = 120 min, simulated intestinal fluid) [ng/mL] | Concentration, t = 150 min ([1]; t = 150 min, simulated intestinal fluid) [ng/mL] | Concentration, t = 180 min ([1]; t = 180 min, simulated intestinal fluid) [ng/mL] | IC50 (ACE) [µM] | Concentration, t = 0 min (pH 3.5) [ng/mL] | Concentration, t = 65 min (pH 6.8) [ng/mL] | Compound | antihypertensive activity [2] |
| --- | --- | --- | --- | --- | --- | --- | --- | --- | --- | --- | --- | --- | --- |
| 0 | 0 | 0 | 9000 | 9000 | 9000 | 9000 | 14000 | 17000 | 50 |  |  | CC[C@H](C)[C@H](N)C(=O)N1CCC[C@H]1C(=O)N[C@@H](C)C(=O)O [IPA] (H-Ile-Pro-Ala-OH; N-terminus and C-terminus assumed) | has antihypertensive activity |
|  |  |  |  |  |  |  |  |  | 120 | 26000 | 3000 | IPAVFK [IPAVFK] |  |

Source: patent US20060216330A1, “Peptides having an ace inhibiting effect” (priority 2003, published 2006)
